{
  "source": "patent EP4268823A1",
  "about": "“COMPOUND FOR TREATING NEUROINFLAMMATION” (Universitätsklinikum Hamburg-Eppendorf, priority 2022, dated 2023)",
  "key": {"primary neurons": {"tested_on": "primary neurons", "assay": "Cell death induction, dead neurons with CellTox green reagent", "format": "cell-based, mouse", "conditions": "1 µM UNC0642 pre-treated 24 hours", "experimental": "(§1) For primary cortical cultures pregnant C57BL/6J, or G9afl/fl;Snap25-Cre mice were euthanized. To ensure comparability between genotypes, only embryos from heterozygous breeding's were used. Brainstem tissue of each embryo for genotyping was reserved and cortices were isolated, dissociated and cells were plated at a density of 1 × 10^5 cells per 1 cm^2 on poly-D-lysine-coated wells (5 µM Sigma-Aldrich, cat. no. A-003-M). If not stated otherwise, cells were maintained in neurobasal plus medium (supplemented with B27 plus, penicillin, streptomycin and L-glutamine; Gibco, cat. no. A3582901) at 37°C, 5% CO^2 and a relative humidity of 98%, and treated with 1 µM cytarabine (Sigma-Aldrich, cat. no. BP383) at 1 day in vitro (div) to inhibit glial cell proliferation. If no cytarabine was applied cells were maintained in PNBM medium (supplemented with neural cell survival factor, gentamycin and L-glutamine; Lonza). Throughout, cultures after 14-23 div were used for experiments. G9a inhibitor UNC0642 was used in a concentration of 1 µM and cultures were pre-treated 24 hours before further experimental procedures.\nPrimary neurons were subjected to dedicated compounds initiating either apoptosis (stauro-sporine), necroptosis (TNF-α + LCL-161 + Z-VAD-FMK, or shikonin), or ferroptosis (RSL3, or erastin) for 48 h in G9afl/fl;Snap25-Cre cultures, or cultures pre-treated for 24 hours with 1 µM UNC0642. Together with the cell death inducing compounds, CellToxTM Green Cytotoxicity Assay (Promega) was added to primary neurons 1:2000. Before fixation with 4% paraformaldehyde, cells were counterstained with Hoechst […]. Neurons were imaged on a Zeiss LSM 700 confocal microscope using 20× magnification."}, "glutathione": {"tested_on": "glutathione", "assay": "GSH-Glo glutathione measurement after glutamate", "format": "cell-based, mouse", "conditions": "primary cortical neurons, glutamate 2 hours, UNC0642-treated", "experimental": "as §1\nGSH-Glo Glutathione assay (Promega) was used as described by the manufacturer. Primary cortical neurons were cultured in a 96-well plate and stimulated with glutamate for 2 hours. […] After 15 min, luminescence was detected at a Spark 10M multimode microplate reader (Tecan)."}, "G9a": {"biological_target": "T1, G9a (Mus musculus, UniProt Q9Z148)", "T1 construct": "UNC0642 pre-treated primary neuronal cultures compared to respective controls; endogenous in cells; host or cells: primary mouse cortical neuronal cultures (C57BL/6J embryos)", "T1 sequence (Q9Z148 1-1263)": "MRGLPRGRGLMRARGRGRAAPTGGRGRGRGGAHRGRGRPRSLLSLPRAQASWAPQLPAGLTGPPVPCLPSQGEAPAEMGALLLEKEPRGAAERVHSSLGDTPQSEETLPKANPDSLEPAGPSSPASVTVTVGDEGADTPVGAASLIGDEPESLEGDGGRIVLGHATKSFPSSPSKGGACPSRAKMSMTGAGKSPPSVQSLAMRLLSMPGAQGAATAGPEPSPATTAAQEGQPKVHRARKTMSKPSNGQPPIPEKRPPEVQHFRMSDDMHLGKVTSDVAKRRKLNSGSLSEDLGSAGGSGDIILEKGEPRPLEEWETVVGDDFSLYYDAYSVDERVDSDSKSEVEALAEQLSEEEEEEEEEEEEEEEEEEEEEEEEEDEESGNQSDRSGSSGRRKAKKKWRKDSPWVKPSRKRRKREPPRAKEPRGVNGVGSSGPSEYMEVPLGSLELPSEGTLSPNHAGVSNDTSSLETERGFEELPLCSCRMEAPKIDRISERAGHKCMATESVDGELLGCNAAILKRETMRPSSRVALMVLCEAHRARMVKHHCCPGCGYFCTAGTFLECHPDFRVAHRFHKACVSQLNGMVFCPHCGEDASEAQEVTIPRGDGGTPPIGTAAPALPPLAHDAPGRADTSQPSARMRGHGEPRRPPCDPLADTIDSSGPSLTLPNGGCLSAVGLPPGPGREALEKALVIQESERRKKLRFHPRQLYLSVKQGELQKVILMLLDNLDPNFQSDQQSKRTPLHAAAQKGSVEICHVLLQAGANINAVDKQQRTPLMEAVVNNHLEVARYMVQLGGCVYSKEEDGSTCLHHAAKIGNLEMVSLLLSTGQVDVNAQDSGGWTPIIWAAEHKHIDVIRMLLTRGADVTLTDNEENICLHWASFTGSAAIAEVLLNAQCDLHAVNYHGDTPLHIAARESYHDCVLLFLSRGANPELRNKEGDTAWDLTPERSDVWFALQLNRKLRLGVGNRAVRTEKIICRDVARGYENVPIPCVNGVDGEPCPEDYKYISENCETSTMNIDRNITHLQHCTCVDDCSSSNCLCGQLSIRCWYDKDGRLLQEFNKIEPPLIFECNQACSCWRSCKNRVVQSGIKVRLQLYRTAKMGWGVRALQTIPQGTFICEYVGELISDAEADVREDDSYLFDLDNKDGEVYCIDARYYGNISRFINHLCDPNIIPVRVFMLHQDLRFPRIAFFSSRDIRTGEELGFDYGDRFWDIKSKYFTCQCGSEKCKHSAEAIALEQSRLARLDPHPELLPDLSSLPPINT", "assay": "Flow cytometry of H3K9me2 in spinal cord neuronal nuclei of EAE mice", "format": "in vivo", "conditions": "EAE animals, 5 mg kg-1 UNC0642"}},
  "data": [
    {"smiles": "COc1cc2c(NC3CCN(C(C)C)CC3)nc(N3CCC(F)(F)CC3)nc2cc1OCCCN1CCCC1", "note": "[UNC0642, 2-(4,4-difluoropiperidin-1-yl)-6-methoxy-N-[1-(propan-2-yl)piperidin-4-yl]-7-[3-(pyrrolidin-1-yl)propoxy]quinazolin-4-amine]", "values": [
      {"measurement": "ferroptosis (dead neurons) induced by RSL3", "setting": "primary neurons; 48 h inducer", "result": "substantially rescued"},
      {"measurement": "ferroptosis (dead neurons) induced by erastin", "setting": "primary neurons; 48 h inducer", "result": "substantially rescued"},
      {"measurement": "necroptosis (dead neurons)", "setting": "primary neurons; TNF-α + LCL-161 + Z-VAD-FMK, or shikonin, 48 h", "result": "neither apoptosis nor necroptosis was affected"},
      {"measurement": "apoptosis (dead neurons)", "setting": "primary neurons; staurosporine 48 h", "result": "neither apoptosis nor necroptosis was affected"},
      {"measurement": "glutathione levels", "setting": "glutathione", "result": "partial rescue of glutathione levels"},
      {"measurement": "H3K9me2 levels in neuronal nuclei", "setting": "G9a", "result": "complete normalization of H3K9me2 levels"}
    ]}
  ]
}
